Assay results: patent publication US4216164A, “Ureide inhibitors of connective tissue destruction” (American Cyanamid Company, priority 1978, dated 1980)
Several values for one entry are separate records, joined by “and”; a condition that tells them apart may be missing. Equal values may be shown once. Where a name gives a salt, the structure may show the parent alone. Each block holds one compound with its values, some of them ahead of it.

How the values were obtained:
[1] = system: corneal ulcerations; conditions: alkali burned rabbit; directly applied to corneal ulcerations; cited from earlier work
[2] = molecular target: T1, human skin fibroblast collagenase (Homo sapiens, UniProt P03956); assay: Collagenase Assay, Test Code 006; assay type: biochemical; conditions: test conc.: 30 μg./ml.
T1 construct: endogenous in cells; host or cells: human skin fibroblasts
T1 sequence (P03956 100-469): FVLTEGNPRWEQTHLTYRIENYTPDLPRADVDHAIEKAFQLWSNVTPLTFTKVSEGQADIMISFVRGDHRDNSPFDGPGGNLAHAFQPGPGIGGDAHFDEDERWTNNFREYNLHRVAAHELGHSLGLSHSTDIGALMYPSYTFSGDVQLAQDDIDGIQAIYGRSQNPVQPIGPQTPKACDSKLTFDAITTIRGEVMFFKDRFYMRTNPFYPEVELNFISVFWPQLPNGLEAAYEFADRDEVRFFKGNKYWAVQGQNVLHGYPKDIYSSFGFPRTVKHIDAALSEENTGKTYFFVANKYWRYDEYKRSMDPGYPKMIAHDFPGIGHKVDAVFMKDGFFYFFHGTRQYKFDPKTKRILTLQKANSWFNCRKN
Experimental: (i) Collagenase Assay--Test Code 006
In a typical assay (total volume of 0.45 ml.), 100 μl. of the activated enzyme was added to the ^14 C-labeled collagen fibrils (250 μl.) followed by 100 μl. of 50 mM cacodylate, pH 7.4, containing 5 mM calcium chloride. After incubation at 37° C. for 16 hours, the tubes were centrifuged in a Beckman microfuge for five minutes at full speed. An aliquot (200 μl.) of the supernatant, representing collagenase digestion products of the fibril, was assayed for radioactivity. The effect of the test compound on collagen degradation by collagenase was examined as follows:
Appropriate blanks and trypsin controls were run in parallel.

[3] = system: corneal ulceration; conditions: human; cited from earlier work
[4] = system: collagenase; conditions: Thromb. Res. 1977, 10(4), 605-11; cited from earlier work
[5] = system: neutral proteases derived from human leukocytes; assay: Leukocyte Neutral Proteases Inhibitor Assay; assay type: biochemical; conditions: for Percent Inhibition of Neutral Protease Activity ^3 H: ^3 H label; for Percent Inhibition of Neutral Protease Activity ^35 S: ^35 S label
Experimental: (§1) An active inhibitor would inhibit the degradation of the collagen fibril; (iii) Leukocyte Neutral Proteases Inhibitor Assay--This test measures the ability of neutral proteases derived from human leukocytes to degrade radiolabeled proteoglycans entrapped in polyacrylamide beads.
(iii) Leukocyte Neutral Proteases Inhibitor Assay
Assays of Leukocyte Neutral Proteases Using ^3 H/^35 S Labeled Proteoglycans
This assay system contained (total volume of 1 ml.) 60 mM Tris-Cl, pH 7.4; 2.5 mM calcium chloride; 2.5 mM magnesium chloride; 2 mg. (dry weight) of polyacrylamide beads entrapped with labeled proteoglycans, and an aliquot of the leukocyte neutral protease preparation. The reaction mixture was incubated at 37° C. for 30 minutes in a shaking water bath. The reaction was terminated by the addition of 0.2 ml. of 5% HCl (v/v). After five minutes at room temperature, the mixture was centrifuged and the clear supernatant (0.6 ml.) was assayed for radioactivity. To determine the effect of the test compounds on degradation of proteoglycans by neutral proteases, various concentrations of the compounds were added to the reaction mixture. Appropriate blanks were included.

[6] = system: fibroblast collagenase and leukocyte neutral protease; assay: Enzymatic Degradation of Collagen of Human Gingiva; assay type: biochemical; conditions: 37° C., 36 hours, control 102.3
Experimental: The test compounds are able to inhibit the degradation of collagen of gingival tissue. Dried pieces of human gingiva were incubated at 37° C. for 36 hours with fibroblast collagenase and leukocyte neutral protease in the presence of test compound (30 and 50 μg./ml.). Antibiotics were present to prevent bacterial growth. After incubation, the residual tissue was hydrolyzed in 6 N hydrochloric acid and the hydroxyproline content (collagen) was determined. When collagenase and neutral protease were added to human gingiva, approximately 100 μg of collagen/mg. dry tissue was digested. If the test compound was present, degradation of gingival collagen was inhibited.

[7] = molecular target: T2, Gingival Crevicular Fluid Collagenase (Homo sapiens, UniProt P22894); assay: Crevicular Fluid Assay; assay type: biochemical; conditions: diseased crevicular fluid + 30 mcg./ml. compound; control 66 ± 9; p<0.0005
T2 construct: from tissue; host or cells: gingival crevicular fluid of a volunteer with periodontal disease
Source text: as §1
(ii) Crevicular Fluid Assay
Effect of Test Compounds on Gingival Crevicular Fluid Collagenase
Since studes by Golub, et al., Dental Res., 55, 1049 (1976) have shown that the crevicular collagenase plays a major role in the degradation of collagen in periodontal tissue, the effect of test compounds on collagen degradation by this system was examined. A volunteer with diagnosed periodontal disease was used. […] After one minute, the filter paper strip was removed and the volume of the gingival crevicular fluid was measured with the aid of the Periotron (Harco Electronics, Ltd., Winnipeg, Canada). The volume of the fluid gathered from the crevice by the filter paper strip is translated by a unique transducer onto a digital readout screen. […] After reading on the meter, 1 μl. of trypsin (1.5 μg./ml.) was added to the filter paper (to activate any latent collagenase present) and after five minutes at room temperature 1 μl. of aprotinin was added. […] The tubes were centrifuged as described above and a 200 μl. aliquot of the clear supernatant was assayed for radioactivity.

T2 sequence (P22894 101-467): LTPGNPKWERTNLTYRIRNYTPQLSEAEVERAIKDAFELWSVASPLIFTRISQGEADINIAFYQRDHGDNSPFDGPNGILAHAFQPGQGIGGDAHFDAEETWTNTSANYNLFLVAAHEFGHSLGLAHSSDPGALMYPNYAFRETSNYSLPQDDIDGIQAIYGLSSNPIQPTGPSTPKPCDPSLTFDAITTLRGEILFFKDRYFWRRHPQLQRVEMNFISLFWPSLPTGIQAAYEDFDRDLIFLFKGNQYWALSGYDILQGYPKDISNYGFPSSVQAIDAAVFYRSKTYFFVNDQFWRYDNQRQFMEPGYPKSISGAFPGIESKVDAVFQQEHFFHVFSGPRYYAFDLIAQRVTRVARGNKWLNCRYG

SMILES: O=C([O-])CN(CCN(CC(=O)[O-])CC(=O)[O-])CC(=O)[O-].[Ca+2].[Ca+2] [Calcium ethylenediaminetetraacetate]
frequency of ulceration [1]: reduce the frequency of ulceration

inhibition at 30 µg/mL [2]: 82%
SMILES: O=C(Nc1cccc(C(=O)Nc2ccc3cc(S(=O)(=O)O)cc(O)c3c2)c1)Nc1cccc(C(=O)Nc2ccc3cc(S(=O)(=O)O)cc(O)c3c2)c1 [6,6'-[Ureylenebis(m-phenylenecarbonylimino)]bis[4-hydroxy-2-naphthalenesulfonic acid]disodium salt]

SMILES: N[C@@H](CS)C(=O)O [cysteine]
treatment of acute and chronic corneal ulceration [3]: effective

inhibition at 30 µg/mL [2]: 95%
SMILES: O=C(Nc1ccc(C(=O)Nc2ccc3cc(S(=O)(=O)O)cc(O)c3c2)cc1)Nc1ccc(C(=O)Nc2ccc3cc(S(=O)(=O)O)cc(O)c3c2)cc1 [6,6'-[Ureylenebis(p-phenylenecarbonylimino)]bis[4-hydroxy-2-naphthalenesulfonic acid]tetrasodium salt]

SMILES: Cc1ccc(C(=O)Nc2ccc(S(=O)(=O)O)c3cc(S(=O)(=O)O)cc(S(=O)(=O)O)c23)cc1NC(=O)c1cccc(NC(=O)Nc2cccc(C(=O)Nc3cc(C(=O)Nc4ccc(S(=O)(=O)O)c5cc(S(=O)(=O)O)cc(S(=O)(=O)O)c45)ccc3C)c2)c1 [Suramin]
inhibition of the activity of collagenase [4]: not inhibiting the action of collagenase

SMILES: CC(=O)N[C@@H](CS)C(=O)O [acetylcysteine]
treatment of acute and chronic corneal ulceration [3]: effective
frequency of ulceration [1]: reduce the frequency of ulceration

% Inhibition of Collagenase [2]: 82% and 81%
SMILES: O=C(Nc1cccc(C(=O)Nc2ccc3cc(S(=O)(=O)O)cc(O)c3c2)c1)Nc1cccc(C(=O)Nc2ccc3cc(S(=O)(=O)O)cc(O)c3c2)c1 [6,6'-[Ureylenebis(3,1-phenylenecarbonylimino)]bis[4-hydroxy-] [6,6'-[Ureylenebis(m-phenylenecarbonylimino)]bis[4-hydroxy-2-naphthalenesulfonic acid]tetrasodium salt]

SMILES: Cc1cc(-c2ccc(/N=N/c3c(S(=O)(=O)O)cc4cc(S(=O)(=O)O)cc(N)c4c3O)c(C)c2)ccc1/N=N/c1c(S(=O)(=O)O)cc2cc(S(=O)(=O)O)cc(N)c2c1O [trypan blue]
inhibition of the activity of collagenase [4]: inhibiting the activity of collagenase

mcg. of Collagen degraded per mg. of dry gingiva ([6]; neutral proteases plus 30 mcg./ml. compound): 60.4 mcg. per mg.
mcg. of Collagen degraded per mg. of dry gingiva ([6]; neutral proteases plus 50 mcg./ml. compound): 27.4 mcg. per mg.
cpm Collagen Degraded/Unit Periotron Reading [7]: 16 ± 6 cpm
SMILES: O=C(Nc1cccc(C(=O)Nc2ccc3cc(S(=O)(=O)O)cc(O)c3c2)c1)Nc1cccc(C(=O)Nc2ccc3cc(S(=O)(=O)O)cc(O)c3c2)c1 [6,6'-[Ureylenebis(3,1-phenylenecarbonylimino)]bis[4-hydroxy-] [6,6'-[Ureylenebis(m-phenylenecarbonylimino)]bis[4-hydroxy-2-naphthalenesulfonic acid]disodium salt]
Percent Inhibition of Neutral Protease Activity ^3 H ([5]; 0.5 mcg./ml.): 0%
Percent Inhibition of Neutral Protease Activity ^35 S ([5]; 0.5 mcg./ml.): 0%
Percent Inhibition of Neutral Protease Activity ^3 H ([5]; 1.0 mcg./ml.): 17%
Percent Inhibition of Neutral Protease Activity ^35 S ([5]; 1.0 mcg./ml.): 31%
Percent Inhibition of Neutral Protease Activity ^3 H ([5]; 2.0 mcg./ml.): 21%
Percent Inhibition of Neutral Protease Activity ^35 S ([5]; 2.0 mcg./ml.): 37%
Percent Inhibition of Neutral Protease Activity ^3 H ([5]; 5.0 mcg./ml.): 47%
Percent Inhibition of Neutral Protease Activity ^35 S ([5]; 5.0 mcg./ml.): 74%
Percent Inhibition of Neutral Protease Activity ^3 H ([5]; 10.0 mcg./ml.): 63%
Percent Inhibition of Neutral Protease Activity ^35 S ([5]; 10.0 mcg./ml.): 91%
